The record followed here is patent publication US5990346A, “Prostaglandins and processes for production thereof” (Teijin Limited, priority 1995, dated 1999).

Broadly, the IC50 is the concentration that inhibits the measured activity by half.

The test system of assay [1] is THP-1 cells (cell migration caused by MCP-1). Kind of assay: Inhibitory activity of cell migration caused by MCP-1 (microchemotaxis chamber). The class given is cell-based. The note with it: recombinant human MCP-1 20 ng/ml, 37° C. The method, then:
Measurement of Inhibitory Activity of Cell Migration Caused by MCP-1
To evaluate the activity of the test compounds listed in the following table in inhibiting cell migration, the cell migration caused by the monocyte chemotactic protein MCP-1/MCAF was measured using human premonocyte-derived leukemia cells THP-1 (ATCCTIB203) as migrating cells and the method of FALK et al. (J. Immunol. Methods, vol. 33, pp. 239 to 247 (1980)) as follows. That is, to the upper chamber (200 μl) of a 96-well microchemotaxis chamber (made by Neuroprobe Co.) was added 2×10^6 /ml THP-1 cells (10% fetal calf serum (FCS) containing RPMI-1640 medium (made by Flow Laboratories Co.), while to the lower chamber (35 μl) was placed recombinant human MCP-1 (made by Peprotech Co.) diluted by the same solution to give a final concentration of 20 ng/ml. Between the two chambers, a polycarbonate filter (pore size 5 μm, PVP-free, made by Neuroprobe Co.) was affixed. Incubation was performed at 37° C. in the presence of 5% CO2 for 2 hours. The filter was taken out and the cells migrating to the lower surface of the filter were immobilized and stained by a DiffQuick solution (made by Kokusai Shiyaku Co.) Next, a Breedmeter (made by Molecular Device Co.) was used for measurement at a measurement wavelength of 550 nm and the mean value of three wells was found and used as an indicator of the number of migrating cells. At this time, the test compound was added to the upper chamber together with THP-1 cells in various concentrations to find the cell migration inhibitory activity. The cell migration inhibition % was found by dividing the (number of migrating cells caused by MCP-1 added to the lower chamber in the case of addition of the test compound to the upper chamber)-(number of migrating cells in the case of no test compound added to the upper chamber and no MCP-1 added to the lower chamber) by (number of migrating cells caused by MCP-1 added to the lower chamber in the case of no test compound added to the upper chamber)-(number of migrating cells in the case of no test compound added to the upper chamber and no MCP-1 added to the lower chamber).

Assay [2] relates to platelets (platelet aggregation). Description: Inhibitory activity of platelet aggregation in rats. The class given is cell-based, Wistar rats (male). The settings on record: rat platelet rich plasma; 100 μM adenosine 2-phosphoric acid (5 μl) induced; 37° C.; read-out: Activity Suppressing Platelet Aggregation (Rats) IC50. As to the method: Measurement of Inhibitory Activity of Platelet Aggregation in Rats
Wistar rats (male, approximately 400 g) were made to fast for 1 day, then the entire blood was taken from the abdominal artery under anesthesia by ether. To this was added a 3.8% aqueous solution of sodium citrate in a 1/10 amount followed by immediate mixture. This was centrifuged at 1000 rpm for 10 minutes. The top layer was used as the platelet rich plasma. The bottom layer was centrifuged at 3000 rpm for 10 minutes and the top layer was used as the platelet poor plasma. The platelet rich plasma was diluted by the platelet poor plasma to give a platelet count of […]. This was used for the measurement. Note that the platelets were measured using an automatic blood cell counter MEK-4500 (Nihon Koden). The platelet aggregation was measured by measuring the turbidity using an NBS HEMATRACER 801 (M. C. Medical). 90 μl of the platelets were placed in cuvettes, then 5 μl of the different test compounds were added to give the target final concentration, then these were heated for 1 minute at 37° C., then 5 μl of an aqueous solution of 100 μM adenosine 2-phosphoric acid (M. C. Medical) was added to cause platelet aggregation. The activity inhibiting aggregation was found from the following formula: […]
Aggregation inhibiting rate (%)
={1-(maximum change in turbidity at time of addition of test compound)
.div.(maximum change in turbidity at time of no addition of test compound)}

For assay [3], the system named is vascular smooth muscle cells (cell migration caused by PDGF). Description: Inhibitory activity of cell migration caused by PDGF (Transwell chamber). The assay is classed as cell-based. The settings on record: human PDGF 10 ng/ml, 37° C., 6 hours. As to the method: Measurement of Inhibitory Activity of Cell Migration Caused by PDGF
To evaluate the activity of the test compounds listed in the following table to inhibit cell migration caused by PDGF, the migrating cells caused by human platelet derived growth factor (PDGF) were measured in the following way using the vascular smooth muscle cells derived from normal human arteries (made by Kurabo) and according to the method of MaCarthy et al. (J. Cell. Biol. 97, 772-777 (1983)). That is, a Transwell Chamber (Costar Co., registered trademark) was used to measure the inhibitory action. The chamber was divided into two layers, upper and lower, by a 8 μm pore size membrane filter (PVP-free polycarbonate filter, Nucleopore Co., registered trademark). […] The cells on the upper surface of the filter were removed by wiping with a cotton swab and the cells that had migrated to the lower surface of the filter were counted under a high output microscope (×200). Usually, five fields were counted per filter. […]

Assay [4] has as its system thickening of intima of carotid artery of rat. Description: Thickening of intima of carotid artery of rat due to balloon catheter. The class given is in vivo, Male Wistar rats. The note with it: 3.2 μg/rat/hr subcutaneously. The method, then:
Thickening of Intima of Carotid Artery of Rat Due to Balloon Catheter
The test was performed in the following manner in accordance with the method of Crose et al. (Lab. Invest., vol. 49, p. 206, 1983). Male Wistar rats having a body weight of 300 to 350 g were used. The neck of each rat was opened under anesthesia by sodium pentobarbitol, then a balloon catheter (Fogarty, 2F) was inserted from the right external carotid artery, until the starting portion of the common carotid artery. The balloon was expanded by physiological saline to such an extent causing a light resistance, then the catheter was pulled out in that state up to the carotid artery to give trauma to the intima. This procedure was repeated three times, then the catheter was withdrawn and the external carotid artery was sewn up. After 14 days, the chest was opened under anesthesia by diethyl ether, refluxing was performed from the aorta by a Carnoa solution (methanol:chloroform:acetic acid=6:3:1), then the right common carotid artery was excised and immobilized by neutral formalin solution. The immobilized carotid artery was dyed by Elasticavan Gieson dye, then the areas of the Media and thickened portion of the Intima were measured by an image resolution device (LUZEX2D). […]

With `CCCC[C@@H](C)C[C@H](O)/C=C/[C@@H]1C(SCCCCCC(=O)O)=CC[C@H]1O` [drawing 90], the IC50 in assay [1] (Homo sapiens, THP-1, 2 h) amounted to 150 nM.
Turning to `CCCC[C@@H](C)C[C@H](O)/C=C/[C@@H]1C(SCCCCCC(=O)OC)=C(C=O)C[C@H]1O`, the IC50 in assay [1] (Homo sapiens, THP-1, 2 h) stood at 190 nM.
For the compound `CCCC[C@@H](C)C[C@H](O)/C=C/[C@@H]1C(SCCCCCC(=O)OC)=C(C)C[C@H]1O` [drawing 103], the 50% inhibitory concentration (IC50) in assay [2] was found to be 4500 nM.
For `CCCC[C@@H](C)C[C@H](O)/C=C/[C@@H]1C(SCCCCCC(=O)OC)=C(C(=O)OC)C[C@H]1O`, the IC50 in assay [1] (Homo sapiens, THP-1, 2 h) came out at 470 nM.
Turning to `COC(=O)CCCCCSC1=CC[C@@H](O)[C@@H]1/C=C/[C@@H](O)Cc1ccccc1`, in assay [1] (Homo sapiens, THP-1, 2 h), the IC50 is 380 nM.
For the compound `CC1=C(SCCCCCC(=O)O)[C@@H](/C=C/C(O)Cc2ccccc2)[C@H](O)C1` (single isomer, unassigned) [Example 34], the IC50 turned out to be 16 nM in assay [1] (Homo sapiens, THP-1, 2 h) and 73 nM in assay [3].
Turning to `CCCC[C@@H](C)C[C@H](O)/C=C/[C@@H]1C(SCCCCCC(=O)OC)=C(CCC(C)(C)C)C[C@H]1O`, the IC50 in assay [1] (Homo sapiens, THP-1, 2 h) turned out to be 600 nM.
With `COC(=O)CCCCCSC1=C(C2CC2)C[C@@H](O)[C@@H]1/C=C/C(O)Cc1ccccc1` (single isomer, unassigned), in assay [1] (Homo sapiens, THP-1, 2 h), the IC50 was 200 nM.
Still for that read-out and setting: the same measure for `CCCC[C@@H](C)C[C@H](O)/C=C/[C@@H]1C(SCCCCCC(=O)O)=C(C)C[C@H]1O`: 72 nM; for `CCCCCC1=C(SCCCCCC(=O)OC)[C@@H](/C=C/[C@@H](O)C[C@H](C)CCCC)[C@H](O)C1`: 450 nM.
With `CCCC[C@@H](C)C[C@H](O)/C=C/[C@@H]1C(SCCCCCC(=O)OC)=CC[C@H]1O` [drawing 104], in assay [2], the IC50 was 760 nM.
In the case of `COC(=O)CCCCCSC1=C(C)CCC1/C=C/[C@@H](O)Cc1ccccc1` (single isomer, unassigned), the IC50 in assay [1] (Homo sapiens, THP-1, 2 h) amounted to 15 nM.
As to `COC(=O)CCCCCCC1=C(C)C[C@@H](O)[C@@H]1/C=C/C(O)Cc1ccccc1` (single isomer, unassigned), the IC50 in assay [1] (Homo sapiens, THP-1, 2 h) worked out at 65 nM.
For the compound `CCCC[C@@H](C)C[C@H](O)/C=C/[C@@H]1C(SCCCCCC(=O)OC)=C(C(F)(F)F)C[C@H]1O`, the IC50 in assay [1] (Homo sapiens, THP-1, 2 h) turned out to be 2500 nM.
For `COC(=O)CCCCCSC1=C(C)C[C@@H](O)[C@@H]1/C=C/C(O)Cc1ccccc1` (single isomer, unassigned) [drawing 92], the IC50 in assay [1] (2 hours) amounted to 210 nM.
As for `CCCC[C@@H](C)C[C@H](O)/C=C/[C@@H]1C(SCCCCCC(=O)OC)=C(C)C[C@H]1O` [drawing 82], the half-inhibitory concentration (IC50) in assay [1] (Homo sapiens, THP-1, 2 h) came to 26 nM.
On to `CCCC[C@@H](C)C[C@H](O)/C=C/[C@@H]1C(SCCCCCC(=O)O)=CC[C@H]1O` [drawing 105], for which, in assay [2], the 50% inhibitory concentration (IC50) is 2200 nM.
For the compound `CCCC[C@@H](C)C[C@H](O)/C=C/[C@@H]1C(SCCCCCC(=O)OC)=CC[C@H]1O` [drawing 89], the IC50 in assay [1] (Homo sapiens, THP-1, 2 h) turned out to be 13 nM.
In assay [3], `COC(=O)CCCCCSC1=C(C)C[C@@H](O)[C@@H]1/C=C/C(O)Cc1ccccc1` (single isomer, unassigned) [drawing 100] showed an IC50 of 81 nM.
On to `COC(=O)CCCCCSC1=C(C)C[C@@H](O)[C@@H]1/C=C/C(O)Cc1ccccc1` (single isomer, unassigned) [drawing 93], for which the half-inhibitory concentration (IC50) in assay [1] (2 hours) is 10 nM.
In the case of `CCCC[C@@H](C)C[C@H](O)/C=C/[C@@H]1C(SCCCCCC(=O)OC)=C(C(C)=O)C[C@H]1O`, the IC50 in assay [1] (Homo sapiens, THP-1, 2 h) was found to be 210 nM.
On the same count and under the same terms, the value for `COC(=O)COCCCSC1=C(C)C[C@@H](O)[C@@H]1/C=C/C(O)Cc1ccccc1` (single isomer, unassigned) was 360 nM.
For `CCCC[C@@H](C)C[C@H](O)/C=C/[C@@H]1C(SCCCCCC(=O)OC)=CC[C@H]1O` [Example 28, methyl (11R,12S,13E,15S,17R)-11,15-dihydroxy-17,20-dimethyl-7-thiaprosta-8,13-dienoate], in assay [4] (3 days before to 11 days after surgery, measured after 14 days, control 0.935 ± 0.377), the “Intima/media (Average ± standard error)” value stood at 0.702 ± 0.241. Further, the “Suppression Rate (intima thickening suppression rate)” value in assay [4] ((1-T/C)×100, vs control group) worked out at 25%.
Regarding `COC(=O)CCCCCSC1=C(C)C[C@@H](O)[C@@H]1CCC(O)Cc1ccccc1` (some centres unmarked), the IC50 in assay [1] (Homo sapiens, THP-1, 2 h) came out at 120 nM.
